Measurements published in publication PMC12564498, “Benzo[d]imidazole–Naphthalen-Arylmethanone Regioisomers as CB1 Ligands: Evaluation of Agonism via an Indirect Cytotoxicity-Based Approach” (International Journal of Molecular Sciences, 2025).
Where “and” joins values, the source holds several entries; their conditions need not be identical. Identical values can stand only once. Like-named read-outs stand apart in the source and are kept apart here.

Assays:
[1] = target: T1, human recombinant cannabinoid CB2 receptor (Homo sapiens, UniProt P34972); assay: CB2 radioligand displacement binding assay ([3H]CP-55940); conditions: for inhibition at 10 µM: displacement of [3H]CP-55940 at 10 μM compound, read-out: CB2 Max Tested µM (% Displacement); for Ki: Cheng–Prusoff from IC50, [3H]CP-55940 0.5 nM; for Ki / IC50: mean ± SEM n = 3; for IC50: [3H]CP-55940 0.5 nM, hCB2 HEK293-EBNA membranes
T1 construct: purchased Perkin Elmer Inc., Singapore Pte; Ltd. RBXCB2M400UA; host or cells: HEK293-EBNA cell membranes (overexpressing)

[2] = target: T2, human cannabinoid CB1 receptor (Homo sapiens, UniProt P21554); assay: biochemical; type: binding; conditions: for inhibition at 10 µM: displacement of [3H]CP-55940 at 10 μM compound, read-out: CB1 Max Tested µM (% Displacement)
T2 construct: purchased Perkin Elmer Inc., Singapore Pte; Ltd. RBHCB1M400UA; host or cells: HEK293-EBNA cell membranes (overexpressing)

U87MG cells = assay: cells; conditions: for cytotoxicity at 0.1 µM: read-out: % Toxicity U87MG, 0.1 μM, 72 h, MTT, n = 3
Procedure: (§1) HEK293, U87MG, and HL-60 cell lines were seeded in a flat-bottom 96-well plate at a density of 10,000 cells per well. […] All compounds were incubated at 0.1 μM in 200 μL of culture medium supplemented with 10% FBS, in a flat-bottom 96-well plate at a density of 10,000 cells per well, at 37 °C for 72 h. Next, 20 μL of a 5 mg/mL MTT solution was added, and the cells were incubated at 37 °C for 4 h. Then, they were solubilized with 10% sodium dodecyl sulfate (SDS) in 0.1 mM HCl and incubated overnight at 37 °C. Formazan absorbance of each well was measured using the EPOCH microplate reader (Biotek, Winooski, VT, USA) at a wavelength of 570 nm. […]
(§2) promyelocytic leukemia cells (HL-60) were maintained at 5% CO2 and 37 °C in DMEM, EMEM and RPMI medium, respectively containing 10% Fetal Bovine Serum and 100 U/mL penicillin and 100 […]
(§3) Cell viability: ([MTT - (3-(4,5-dimethylthiazol-2-yl)-2,5-diphenyltetrazolium bromide) - formazan] HEK293, U87MG, and HL-60 cells were first quantified to determine the exact number to be used in […]
(§4) with the Beer-Lambert(1).
(§5) HEK293, U87MG and HL-60 cell lines were seed in a flat-bottom 96-wells plate at a density of 10,000 […]
(§6) concentrations (0.001 μM to 10 μM) in 200 μL of respective culture medium supplemented with 10% fetal bovine serum (FBS), at 37 °C for 72 hours. Subsequently, 20 μL of 5 mg/mL MTT solution was added to each well, and cells were incubated at 37 °C for 4 h. The resulting formazan crystals were then solubilized with 10% sodium dodecyl sulfate (SDS) in 0.1 mM HCl, followed by overnight incubation at 37 °C. Untreated cells were used as the control, 0.1% of dimethyl sulfoxide (DMSO) as the vehicle control, and 0.2 % of Triton X-100 as a positive control for cell death. IC 50 toxicity values […]
(§7) same conditions described in the previous paragraph. […]
(§8) determined IC50. The stimulation with both CB ligands was performed simultaneously.
(§9) All compounds were incubated at 0.1 μM in 200 μL of culture medium supplemented with 10% FBS, in a flat-bottom 96-well plate at a density of 10,000 cells per well, at 37°C for 72 hours. Next, 20 μL of a 5 mg/mL MTT solution was added, and the cells were incubated at 37°C for 4 hours. Then, they were solubilized with 10% sodium dodecyl sulfate (SDS) in 0.1 mM HCl and incubated overnight at 37°C. Formazan absorbance of each well was measured using the EPOCH microplate reader (Biotek, USA) at a wavelength of 570 nm.
(§10) [1]Mosorov, V., The Lambert-Beer law in time domain form and its application.

HEK293 cells = assay: cells; conditions: for % Toxicity HEK293T: 0.1 μM, 72 h, MTT, n = 3; for cytotoxicity at 0.1 µM: Homo sapiens, HEK293, 72 h, read-out: % Toxicity HEK293T, 0.1 μM, 72 h, MTT, n = 3
Procedure: as §1, §2, §3, §4, §5, §6, §7, §8, §9, §10

HL-60 cells = assay: cells; conditions: for % Toxicity HL-60: 0.1 μM, 72 h, MTT, n = 3
Procedure: as §1, §2, §3, §4, §5, §6, §7, §8, §9, §10

[3] = Cheng–Prusoff from IC50, [3H]CP-55940 0.5 nM, mean ± SEM n = 3, read-out: CB1 Ki
[4] = [3H]CP-55940 0.5 nM, hCB1 HEK293-EBNA membranes, mean ± SEM n = 3, read-out: CB1 IC50

T1 sequence (P34972 whole entry): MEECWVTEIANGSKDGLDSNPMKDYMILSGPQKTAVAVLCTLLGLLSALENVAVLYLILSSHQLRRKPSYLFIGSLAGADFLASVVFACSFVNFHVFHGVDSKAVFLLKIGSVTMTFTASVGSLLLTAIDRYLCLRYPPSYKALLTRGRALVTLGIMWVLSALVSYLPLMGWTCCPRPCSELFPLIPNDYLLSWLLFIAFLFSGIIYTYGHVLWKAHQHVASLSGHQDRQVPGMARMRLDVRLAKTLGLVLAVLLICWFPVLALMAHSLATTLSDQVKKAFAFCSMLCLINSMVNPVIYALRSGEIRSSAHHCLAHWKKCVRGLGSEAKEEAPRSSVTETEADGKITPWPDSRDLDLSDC
T2 sequence (P21554 whole entry): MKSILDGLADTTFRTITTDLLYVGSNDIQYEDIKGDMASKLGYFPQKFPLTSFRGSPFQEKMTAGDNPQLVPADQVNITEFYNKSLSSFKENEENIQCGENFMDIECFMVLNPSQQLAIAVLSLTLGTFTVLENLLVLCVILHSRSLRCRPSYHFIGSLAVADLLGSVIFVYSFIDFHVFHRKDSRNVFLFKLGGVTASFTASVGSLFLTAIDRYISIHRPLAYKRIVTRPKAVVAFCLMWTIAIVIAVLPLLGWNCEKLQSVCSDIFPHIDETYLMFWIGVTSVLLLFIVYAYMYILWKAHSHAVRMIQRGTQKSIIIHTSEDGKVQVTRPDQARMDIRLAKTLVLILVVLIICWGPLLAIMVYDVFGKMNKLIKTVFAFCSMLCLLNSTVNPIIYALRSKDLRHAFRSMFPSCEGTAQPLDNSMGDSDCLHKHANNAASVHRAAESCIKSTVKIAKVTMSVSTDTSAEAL

Row | Compound | inhibition at 10 µM [1] [%] | Ki [2, 3] | IC50 [2, 4] [µM] | inhibition at 10 µM [2] [%] | Ki [1] [µM] | IC50 [1] [µM] | IC50 [2] [µM] | Ki ([2]; CB1 Ki) [µM] | % Toxicity U87MG (U87MG cells; 0.1 μM, 72 h, MTT, n = 3) [%] | cytotoxicity at 0.1 µM (U87MG cells; Homo sapiens, U-87 MG, 72 h) [%] | % Toxicity HEK293T (HEK293 cells) [%] | cytotoxicity at 0.1 µM (HEK293 cells) [%] | % Toxicity HL-60 (HL-60 cells) | cytotoxicity at 0.1 µM (HL-60 cells; Homo sapiens, HL-60, 72 h, read-out: % Toxicity HL-60) [%] | IC50 U87MG cells as printed in the figure picture (U87MG cells; MTT dose–response curve, unit not given) | IC50 (U87MG cells; Homo sapiens, U-87 MG, 72 h, read-out: IC50 toxicity U87MG, MTT, 72 h) [µM]
1 | O=C(c1cccc2ccccc12)n1c(-c2cccnc2)nc2ccc(Cl)cc21 [4a′] | 52 | > 10 µM | > 10 | 20 | – | – | – | – | – | – | – | – | – | – | – | –
2 | Cc1cc(-c2nc3ccc(Cl)cc3n2C(=O)c2cccc3ccccc23)no1 [4c′] | 29 | > 10 µM | > 10 | 44 | > 10 | > 10 | – | – | – | – | – | – | – | – | – | –
3 | O=C(c1cccc2ccccc12)n1c(-c2ccon2)nc2ccc(Cl)cc21 [4d′] | 42 | – | – | 47 | > 10 | > 10 | > 10 | > 10 | – | – | – | – | – | – | – | –
4 | Cc1ccc(-c2nc3ccc(Cl)cc3n2C(=O)c2cccc3ccccc23)o1 [4e′] | 52.8 | > 10 µM | > 10 | 38 | > 10 | > 10 | – | – | – | – | – | – | – | – | – | –
5 | O=C(c1cccc2ccccc12)n1c(-c2cccnc2)nc2ccc(F)cc21 [5a′, (6-fluoro-2-(pyridin-3-yl)-1H-benzo[d]imidazol-1-yl)(naphthalen-1-yl)methanone] | 16 | > 10 µM | > 10 | 9.5 | > 10 | > 10 | – | – | – | – | – | – | – | – | – | –
6 | COc1cccc(-c2nc3ccc(F)cc3n2C(=O)c2cccc3ccccc23)c1 [5b′, (6-fluoro-2-(3-methoxyphenyl)-1H-benzo[d]imidazol-1-yl)(naphthalen-1-yl)methanone] | 53.5 | > 10 µM | > 10 | 47 | > 10 | > 10 | – | – | – | – | – | – | – | – | – | –
7 | Cc1cc(-c2nc3ccc(F)cc3n2C(=O)c2cccc3ccccc23)no1 [5c′, (6-fluoro-2-(5-methylisoxazol-3-yl)-1H-benzo[d]imidazol-1-yl)(naphthalen-1-yl)methanone] | 29 | > 10 µM | > 10 | 37 | > 10 | > 10 | – | – | – | – | – | – | – | – | – | –
8 | O=C(c1cccc2ccccc12)n1c(-c2ccon2)nc2ccc(F)cc21 [5d′, (6-fluoro-2-(isoxazol-3-yl)-1H-benzo[d]imidazol-1-yl)(naphthalen-1-yl)methanone] | 26 | > 10 µM | > 10 | 34 | > 10 | > 10 | – | – | – | – | – | – | – | – | – | –
9 | Cc1ccc(-c2nc3ccc(F)cc3n2C(=O)c2cccc3ccccc23)o1 [5e′, (6-fluoro-2-(5-methylfuran-2-yl)-1H-benzo[d]imidazol-1-yl)(naphthalen-1-yl)methanone] | 52 | > 10 µM | > 10 | 43 | > 10 | > 10 | – | – | – | – | – | – | – | – | – | –
10 | O=C(c1cccc2ccccc12)n1c(-c2cccnc2)nc2cc(Cl)ccc21 [Compound 4a] | 35 | > 10 µM | > 10 | 36 | 6.6 | – | – | – | – | – | – | – | – | – | – | –
11 | COc1cccc(-c2nc3cc(Cl)ccc3n2C(=O)c2cccc3ccccc23)c1 [Compound 4b] | 48 | > 10 µM | > 10 | 39 | > 10 | > 10 | – | – | – | – | – | – | – | – | – | –
12 | Cc1cc(-c2nc3cc(Cl)ccc3n2C(=O)c2cccc3ccccc23)no1 [Compound 4c] | 30 | > 10 µM | > 10 | 38 | > 10 | > 10 | – | – | – | – | – | – | – | – | – | –
13 | O=C(c1cccc2ccccc12)n1c(-c2ccon2)nc2cc(Cl)ccc21 [Compound 4d] | 15 | ~1.86 µM and 1.86 µM | 7.58 ± 4.21 | > 55 | > 10 | > 10 | – | – | 50 ± 14 | 50 | 10 ± 9 | 10 | – | – | – | –
14 | Cc1ccc(-c2nc3cc(Cl)ccc3n2C(=O)c2cccc3ccccc23)o1 [Compound 4e] | 29 | > 10 µM | > 10 | 30 | > 10 | > 10 | – | – | – | – | – | – | – | – | – | –
15 | O=C(c1cccc2ccccc12)n1c(-c2ccco2)nc2cc(Cl)ccc21 [Compound 4f] | 46.5 | > 10 µM | > 10 | > 50 | > 10 | > 10 | – | – | – | – | – | – | – | – | – | –
16 | O=C(c1cccc2ccccc12)n1c(-c2ccco2)nc2ccc(Cl)cc21 [Compound 4f′] | 53.2 | > 10 µM | > 10 | 47.5 | > 10 | > 10 | – | – | – | – | 50 ± 23 | 50 | 10 ± 19% | 10 | – | –
17 | O=C(c1cccc2ccccc12)n1c(-c2cccnc2)nc2cc(F)ccc21 [Compound 5a] | 43 | > 10 µM | > 10 | 41 | > 10 | > 10 | – | – | – | – | – | – | – | – | – | –
18 | Cc1cc(-c2nc3cc(F)ccc3n2C(=O)c2cccc3ccccc23)no1 [Compound 5c, (5-fluoro-2-(5-methylisoxazol-3-yl)-1H-benzo[d]imidazol-1-yl)(naphthalen-1-yl)methanone] | 24 | > 10 µM | > 10 | 54.5 | > 10 | > 10 | – | – | – | – | – | – | – | – | – | –
19 | O=C(c1cccc2ccccc12)n1c(-c2ccon2)nc2cc(F)ccc21 [Compound 5d, (5-fluoro-2-(isoxazol-3-yl)-1H-benzo[d]imidazol-1-yl)(naphthalen-1-yl)methanone] | 51 | > 10 µM | > 10 | 54 | > 10 | > 10 | – | – | – | – | – | – | – | – | – | –
20 | O=C(c1cccc2ccccc12)n1c(-c2ccco2)nc2cc(F)ccc21 [Compound 5f, (5-fluoro-2-(furan-2-yl)-1H-benzo[d]imidazol-1-yl)(naphthalen-1-yl)methanone] | 54.5 | ~1.48 µM and 1.48 µM | 6.03 ± 4.09 | > 55 | > 10 | > 10 | – | – | – | – | – | – | – | – | 8.963 x 10^-8 | –
21 | O=C(c1cccc2ccccc12)n1c(-c2ccco2)nc2ccc(F)cc21 [Compound 5f′, (6-fluoro-2-(furan-2-yl)-1H-benzo[d]imidazol-1-yl)(naphthalen-1-yl)methanone] | 47 | ~2.12 µM and 2.12 µM | 8.65 ± 3.11 | > 55 | > 10 | > 10 | – | – | – | 66 | – | – | does not show any toxicity | – | – | 0.089
